Our source for the mass density values is the NIST ThermoML archive (doi:10.1021/je201301b).

SMILES strings stand for the structures. Numbers after ± are expanded uncertainties.

The conditions of this series: 101.33 kPa, Liquid, Vibrating tube method.

The term mass density denotes the mass of a sample divided by its volume. For the molecule `CCCCCCOCn1cc[n+](COCCCCCC)c1.O=S(=O)([N-]S(=O)(=O)C(F)(F)F)C(F)(F)F`, the mass density reads like this: (298.15 K) 1254.89 ± 3.9 kg/m3; (308.15 K) 1246.07 ± 3.9 kg/m3; (318.15 K) 1237.28 ± 3.8 kg/m3; (328.15 K) 1228.51 ± 3.8 kg/m3; (338.15 K) 1219.66 ± 3.7 kg/m3; (348.15 K) 1210.87 ± 3.7 kg/m3.
For the molecule `CCCCCCOCn1cc[n+](C)c1.F[B-](F)(F)F` [1-hexyloxymethyl-3-methylimidazolium tetrafluoroborate], the mass density runs as follows: (298.15 K) 1153.1 ± 3.3 kg/m3; (308.15 K) 1145.76 ± 3.2 kg/m3; (318.15 K) 1138.71 ± 3.2 kg/m3; (328.15 K) 1131.65 ± 3.2 kg/m3; (338.15 K) 1124.63 ± 3.1 kg/m3; (348.15 K) 1117.63 ± 3.1 kg/m3.
